According to paper PMC6375636, “Monotherapy with a low-dose lipopeptide HIV fusion inhibitor maintains long-term viral suppression in rhesus macaques” (PLoS Pathogens, 2019):
Peptide text beside a SMILES is read from it. * marks the point of attachment. Stearoyl = CCCCCCCCCCCCCCCCCC(=O)*

Experiments:
Format in all cases: cell-based
[1] = test system: HIV-1 pseudovirus, primary Env 246_F3_C10_2; settings: Env 246_F3_C10_2, subtype A/C; mean ± SD of 3 assays in triplicate
Method: (§1) The inhibitory activities of inhibitors against HIV-1 pseudoviruses and replication-competent isolates were measured as described previously. Briefly, HIV-1 pseudoviruses were generated via the cotransfection of HEK293T cells with an Env-expressing plasmid and a backbone plasmid that encodes Env-defective, luciferase-expressing HIV-1 genome (pSG3Δenv). Viral stocks of replication-competent HIV-1 isolates were generated by transfecting viral molecular clones into HEK293T cells. Culture supernatants were harvested at 48 h posttransfection, and 50% tissue culture infectious doses (TCID50) in TZM-bl cells were determined. Inhibitors were prepared in 3-fold dilutions, mixed with 100 TCID50 of a virus, and then incubated for 1 h at room temperature. The mixture was added to TZM-bl cells (10^4/well), and the cells were incubated for additional 48 h at 37°C. Luciferase activity was measured as described above.

[2] = test system: HIV-1 pseudovirus, primary Env B02; settings: Env B02, subtype B'; mean ± SD of 3 assays in triplicate
Method: as §1

HIV-1 THRO.c/2626 = settings: Table 2; THRO.c/2626, subtype B, R5; mean ± SD of 3 assays in triplicate
Method: as §1

[3] = test system: HIV-1 pseudovirus, primary Env GX11.13; settings: Env GX11.13, subtype A/E; mean ± SD of 3 assays in triplicate
Method: as §1

[4] = test system: HIV-1 pseudovirus, primary Env CNE55; settings: Env CNE55, subtype A/E; mean ± SD of 3 assays in triplicate
Method: as §1

HIV-1 NL4-3 = settings: Table 2; NL4-3, subtype B, X4; mean ± SD of 3 assays in triplicate
Method: as §1

[5] = test system: HIV-1 pseudovirus, primary Env CE703010217_B6; settings: Env CE703010217_B6, subtype C; mean ± SD of 3 assays in triplicate
Method: as §1

HIV-1 R3A = settings: Table 2, subtype B, R5X4, mean ± SD of 3 assays in triplicate
Method: as §1

[6] = test system: HIV-1 pseudovirus, primary Env SHX335.24; settings: Env SHX335.24, subtype A/E; mean ± SD of 3 assays in triplicate
Method: as §1

[7] = test system: HIV-1 pseudovirus, primary Env 43–22; settings: Env 43–22, subtype B'; mean ± SD of 3 assays in triplicate
Method: as §1

[8] = test system: divergent HIV-1 subtypes (pseudoviruses with primary Envs); settings: mean of the 36 pseudoviruses of Table 3; for VRC01 >300000 apparently counted as 300000; read-out: Mean IC50 over divergent HIV-1 subtypes
Method: as §1

[9] = test system: HIV-1 pseudovirus, primary Env 398-F1_F6_20; settings: Env 398-F1_F6_20, subtype A; mean ± SD of 3 assays in triplicate
Method: as §1

[10] = test system: HIV-1 pseudovirus, primary Env 92RW020; settings: Env 92RW020, subtype A; mean ± SD of 3 assays in triplicate
Method: as §1

HIV-1 SG3 = settings: Table 2; SG3, subtype B, X4; mean ± SD of 3 assays in triplicate
Method: as §1

[11] = test system: replication-competent HIV-1 isolates; settings: mean of the ten isolates of Table 2; read-out: Mean IC50 over the replication-competent isolates
Method: as §1

[12] = test system: HIV-1 pseudovirus, primary Env SC422661.8; settings: Env SC422661.8, subtype B; mean ± SD of 3 assays in triplicate
Method: as §1

[13] = test system: HIV-1 pseudovirus, primary Env 92UG037.8; settings: Env 92UG037.8, subtype A; mean ± SD of 3 assays in triplicate
Method: as §1

[14] = test system: HIV-1 pseudovirus, primary Env X1632-S2-B10; settings: Env X1632-S2-B10, subtype G; mean ± SD of 3 assays in triplicate
Method: as §1

[15] = test system: HIV-1 pseudovirus, primary Env CH64.20; settings: Env CH64.20, subtype B/C; mean ± SD of 3 assays in triplicate
Method: as §1

HIV-1 WITO.c/2474 = settings: Table 2; WITO.c/2474, subtype B, R5; mean ± SD of 3 assays in triplicate
Method: as §1

[16] = test system: HIV-1 pseudovirus, primary Env CH120.6; settings: Env CH120.6, subtype B/C; mean ± SD of 3 assays in triplicate
Method: as §1

HIV-1 RHPA.c/2635 = settings: Table 2; RHPA.c/2635, subtype B, R5; mean ± SD of 3 assays in triplicate
Method: as §1

[17] = test system: HIV-1 pseudovirus, primary Env X2278_C2_B6; settings: Env X2278_C2_B6, subtype B; mean ± SD of 3 assays in triplicate
Method: as §1

[18] = test system: HIV-1 pseudovirus, primary Env CE1176_A3; settings: Env CE1176_A3, subtype C; mean ± SD of 3 assays in triplicate
Method: as §1

[19] = test system: HIV-1 pseudovirus, primary Env BJOX002000.03.2; settings: Env BJOX002000.03.2, subtype B/C; mean ± SD of 3 assays in triplicate
Method: as §1

[20] = test system: HIV-1 pseudovirus, primary Env R3A; settings: subtype B, mean ± SD of 3 assays in triplicate
Method: as §1

| Molecule | IC50 [1] | IC50 [2] | IC50 (HIV-1 THRO.c/2626) | IC50 [3] | IC50 [4] | IC50 [5] | IC50 (HIV-1 R3A) | IC50 [6] | IC50 [7] | IC50 [8] | IC50 [9] | IC50 [10] | IC50 (HIV-1 SG3) | IC50 [11] | IC50 [12] | IC50 [13] | IC50 [14] | IC50 [15] | IC50 (HIV-1 WITO.c/2474) | IC50 [16] | further results |
| --- | --- | --- | --- | --- | --- | --- | --- | --- | --- | --- | --- | --- | --- | --- | --- | --- | --- | --- | --- | --- | --- |
| CCCCCCCCCCCCCCCCCC(=O)NCCCC[C@H](NC(=O)[C@H](CCC(=O)O)NC(=O)[C@H](CC(C)C)NC(=O)[C@H](CCCCN)NC(=O)[C@H](CCCCN)NC(=O)[C@H](CC(C)C)NC(=O)[C@H](CCC(=O)O)NC(=O)[C@H](CCC(=O)O)NC(=O)[C@H](CCC(=O)O)NC(=O)[C@H](CC(N)=O)NC(=O)[C@H](CCCCN)NC(=O)[C@H](CCCCN)NC(=O)[C@H](CCC(N)=O)NC(=O)[C@H](CCC(N)=O)NC(=O)[C@H](CCC(=O)O)NC(=O)[C@H](CCC(=O)O)NC(=O)[C@H](C)NC(=O)[C@H](CCCCN)NC(=O)[C@H](CCCCN)NC(=O)[C@H](CC(C)C)NC(=O)[C@H](CC(C)C)NC(=O)[C@H](CCC(=O)O)NC(=O)[C@H](CCC(=O)O)NC(=O)[C@@H](NC(C)=O)[C@@H](C)CC)C(N)=O [LP-90] (Ac-IEELLKKAEEQQKKNEEELKKLEK(Stearoyl)-NH2) | 0.00684 ± 0.00047 nM | 0.0155 ± 0.00368 nM | 0.0146 ± 0.00224 nM | 0.0248 ± 0.00159 nM | 0.00254 ± 0.00089 nM | 0.0112 ± 0.00083 nM | 0.00932 ± 0.00121 nM | 0.00301 ± 0.0002 nM | 0.0039 ± 0.00133 nM | 0.0134 nM | 0.00632 ± 0.00046 nM | 0.0151 ± 0.00062 nM | 0.00167 ± 0.00061 nM | 0.0237 nM | 0.0385 ± 0.00705 nM | 0.00842 ± 0.00152 nM | 0.0284 ± 0.00411 nM | 0.00772 ± 0.00267 nM | 0.00406 ± 0.00167 nM | 0.0254 ± 0.00162 nM | IC50 (HIV-1 NL4-3): 0.0768 ± 0.019 nM; IC50 (HIV-1 RHPA.c/2635): 0.00536 ± 0.00166 nM; IC50 [17]: 0.00104 ± 0.00022 nM; IC50 [18]: 0.00877 ± 0.00195 nM |
| enfuvirtide [Lipopeptide T-20, reference compound] | 36.2 ± 3.7 nM | 10.4 ± 0.529 nM | 31.3 ± 2.39 nM | 24.9 ± 2.21 nM | 25.1 ± 2.33 nM | 41.8 ± 2.22 nM | 6.73 ± 1.08 nM | 40.6 ± 1.42 nM | 23.2 ± 0.593 nM | 30 nM | 19.4 ± 1.71 nM | 3.24 ± 0.232 nM | 2.85 ± 0.227 nM | 15.3 nM | 16.1 ± 2.24 nM | 7.76 ± 1.04 nM | 15.6 ± 2.01 nM | 33.3 ± 1.18 nM | 7.81 ± 1.62 nM | 48.1 ± 4.92 nM | IC50 [19]: 26.3 ± 2.77 nM; IC50 [20]: 6.88 ± 1.12 nM; IC50 (HIV-1 RHPA.c/2635): 6.52 ± 1.33 nM; IC50 [17]: 5.66 ± 0.0744 nM; IC50 [18]: 8.4 ± 0.496 nM |
